According to patent US20260217735A1, “HETEROCYCLES AND USES THEREOF” (Kumquat Biosciences Inc., priority 2023, published 2026):

Tests used:
KRAS G12D = target: T1, KRAS G12D (Homo sapiens, UniProt P01116, G12D); assay: HTRF assay, KRAS G12D interaction with SOS1; assay type: biochemical; conditions: bins <500 nM / 500 nM to 1000 nM, read-out: Inhibition of KRAS G12D (IC50)
T1 construct: made in house; host or cells: E. coli, e.g. BL21 (DE3)

KRAS WT = target: T2, KRAS WT (Homo sapiens, UniProt P01116); assay: HTRF assay, wildtype KRAS interaction with SOS1; assay type: biochemical; conditions: bins <500 nM / 500 nM to 1000 nM, read-out: Inhibition of KRAS WT (IC50)
T2 construct: made in house; host or cells: E. coli, e.g. BL21 (DE3)
T2 sequence (P01116 1-188 isoform P01116-2): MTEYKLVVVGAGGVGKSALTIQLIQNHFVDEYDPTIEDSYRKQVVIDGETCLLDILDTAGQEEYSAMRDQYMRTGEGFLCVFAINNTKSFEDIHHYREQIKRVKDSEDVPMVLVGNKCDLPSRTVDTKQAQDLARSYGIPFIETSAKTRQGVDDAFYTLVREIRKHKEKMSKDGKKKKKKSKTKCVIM

KRAS G12V = target: T3, KRAS G12V (Homo sapiens, UniProt P01116, G12V); assay: HTRF assay, KRAS G12V interaction with SOS1; assay type: biochemical; conditions: bins <500 nM / 500 nM to 1000 nM, read-out: Inhibition of KRAS G12V (IC50)
T3 construct: made in house; host or cells: E. coli, e.g. BL21 (DE3)
T3 sequence (P01116 1-188 isoform P01116-2 G12V): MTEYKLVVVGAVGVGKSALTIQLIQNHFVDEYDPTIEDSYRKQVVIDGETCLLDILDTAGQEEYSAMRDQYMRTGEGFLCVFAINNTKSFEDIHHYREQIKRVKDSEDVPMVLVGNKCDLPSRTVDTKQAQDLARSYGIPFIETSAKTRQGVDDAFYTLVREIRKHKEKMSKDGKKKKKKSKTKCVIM

KRAS G12S = target: T4, KRAS G12S (Homo sapiens, UniProt P01116, G12S); assay: HTRF assay, KRAS G12S interaction with SOS1; assay type: biochemical; conditions: bins <500 nM / 500 nM to 1000 nM, read-out: Inhibition of KRAS G12S (IC50)
T4 construct: made in house; host or cells: E. coli, e.g. BL21 (DE3)
T4 sequence (P01116 1-188 isoform P01116-2 G12S): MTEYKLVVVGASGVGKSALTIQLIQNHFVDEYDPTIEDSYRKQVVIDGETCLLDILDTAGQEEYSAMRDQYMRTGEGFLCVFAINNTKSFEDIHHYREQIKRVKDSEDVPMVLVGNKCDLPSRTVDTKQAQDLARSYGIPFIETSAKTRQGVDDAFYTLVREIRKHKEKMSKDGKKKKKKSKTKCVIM

MiaPaca2 cells = assay: Ras cellular assay, growth of cells with K-Ras G12C mutation; assay type: cell-based; conditions: Homo sapiens, MIA PaCa-2; cell proliferation assay; bins ≤500 nM / >500 nM; read-out: Inhibition of MiaPaca2 Cells (IC50)
Method in brief: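 MIA PaCa-2 cells (K-Ras G12C, about 125-150 cells/well) grown in 0.25% soft agar over a 0.6% agar base, compound added on day 2 at 0.3% final DMSO. Growth read on day 10 by Cell Titer 96 AQueous absorbance (490 nm, reference 660 nm) against time-zero wells; IC50 from four-parameter fit.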

T1 sequence (P01116 1-188 isoform P01116-2 G12D): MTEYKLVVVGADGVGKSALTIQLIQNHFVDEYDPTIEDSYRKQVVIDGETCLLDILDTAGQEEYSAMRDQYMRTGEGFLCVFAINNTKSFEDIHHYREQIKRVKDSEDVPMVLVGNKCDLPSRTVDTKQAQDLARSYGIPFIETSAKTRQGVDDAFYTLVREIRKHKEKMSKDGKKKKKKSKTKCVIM

Row | SMILES | IC50 (KRAS G12D) | IC50 (KRAS WT) | IC50 (KRAS G12V) | IC50 (KRAS G12S) | IC50 (MiaPaca2 cells)
1 | CCN(c1nc(OC[C@@]23CCCN2C[C@H](F)C3)nc2c(F)c(-c3ccc(F)c4sc(N)c(C#N)c34)c(C3CC3)cc12)[C@@H]1CCN(C(=O)n2cnc(C)c2C)[C@@H]1C [Compound 175, 2-amino-4-(6-cyclopropyl-4-(((2R,3R)-1-(4,5-dimethyl-1H-imidazole-1-carbonyl)-2-methylpyrrolidin-3-yl)(ethyl)amino)-8-fluoro-2-(((2R,7aS)-2-fluorotetrahydro-1H-pyrrolizin-7a(5H)-yl)methoxy)quinazolin-7-yl)-7-fluorobenzo[b]thiophene-3-carbonitrile] | < 500 nM | < 500 nM | < 500 nM | < 500 nM | ≤ 500 nM
2 | C[C@@H]1[C@H](N(C)c2nc(OC[C@@]34CCCN3C[C@H](F)C4)nc3c(F)c(-c4ccc(F)c5sc(N)c(C#N)c45)c(Cl)cc23)CCN1C(=O)n1ccnc1C#N [Compound 176, 1-((2R,3R)-3-((7-(2-amino-3-cyano-7-fluorobenzo[b]thiophen-4-yl)-6-chloro-8-fluoro-2-(((2R,7aS)-2-fluorotetrahydro-1H-pyrrolizin-7a(5H)-yl)methoxy)quinazolin-4-yl)(methyl)amino)-2-methylpyrrolidine-1-carbonyl)-1H-imidazole-2-carbonitrile] | < 500 nM | < 500 nM | < 500 nM | < 500 nM | ≤ 500 nM
3 | CCN(c1nc(OC[C@@]23CCCN2C[C@H](F)C3)nc2c(F)c(-c3ccc(F)c4sc(N)c(C#N)c34)ncc12)[C@@H]1CCN(C(=O)n2cnc(Cl)n2)[C@@H]1C [Compound 177, 2-amino-4-(4-(((2R,3R)-1-(3-chloro-1H-1,2,4-triazole-1-carbonyl)-2-methylpyrrolidin-3-yl)(ethyl)amino)-8-fluoro-2-(((2R,7aS)-2-fluorotetrahydro-1H-pyrrolizin-7a(5H)-yl)methoxy)pyrido[4,3-d]pyrimidin-7-yl)-7-fluorobenzo[b]thiophene-3-carbonitrile] | < 500 nM | < 500 nM | < 500 nM | < 500 nM | ≤ 500 nM
4 | C[C@@H]1[C@H](N(C)c2nc(OC[C@@]34CCCN3C[C@H](F)C4)nc3c(F)c(-c4ccc(F)c5sc(N)c(C#N)c45)c(Cl)cc23)CCN1C(=O)n1ccnc1Cl [Compound 178, 2-amino-4-(6-chloro-4-(((2R,3R)-1-(2-chloro-1H-imidazole-1-carbonyl)-2-methylpyrrolidin-3-yl)(methyl)amino)-8-fluoro-2-(((2R,7aS)-2-fluorotetrahydro-1H-pyrrolizin-7a(5H)-yl)methoxy)quinazolin-7-yl)-7-fluorobenzo[b]thiophene-3-carbonitrile] | < 500 nM | < 500 nM | < 500 nM | < 500 nM | ≤ 500 nM
5 | CN(c1nc(OC[C@@]23CCCN2C[C@H](F)C3)nc2c(F)c(-c3ccc(F)c4sc(N)c(C#N)c34)c(Cl)cc12)[C@H]1CCN(C(=O)n2cncn2)C1 [Compound 179, 4-(4-(((S)-1-(1H-1,2,4-triazole-1-carbonyl)pyrrolidin-3-yl)(methyl)amino)-6-chloro-8-fluoro-2-(((2R,7aS)-2-fluorotetrahydro-1H-pyrrolizin-7a(5H)-yl)methoxy)quinazolin-7-yl)-2-amino-7-fluorobenzo[b]thiophene-3-carbonitrile] | < 500 nM | < 500 nM | < 500 nM | < 500 nM | ≤ 500 nM
6 | Cc1ncn(C(=O)N2CC[C@@H](N(C)c3nc(OC[C@@]45CCCN4C[C@H](F)C5)nc4c(F)c(-c5ccc(F)c6sc(N)c(C#N)c56)c(Cl)cc34)[C@H]2C)c1C [Compound 180, 2-amino-4-(6-chloro-4-(((2R,3R)-1-(4,5-dimethyl-1H-imidazole-1-carbonyl)-2-methylpyrrolidin-3-yl)(methyl)amino)-8-fluoro-2-(((2R,7aS)-2-fluorotetrahydro-1H-pyrrolizin-7a(5H)-yl)methoxy)quinazolin-7-yl)-7-fluorobenzo[b]thiophene-3-carbonitrile] | < 500 nM | < 500 nM | < 500 nM | < 500 nM | ≤ 500 nM
7 | CN(c1nc(OC[C@@]23CCCN2C[C@H](F)C3)nc2c(F)c(-c3ccc(F)c4sc(N)c(C#N)c34)c(Cl)cc12)[C@@H]1CCN(C(=O)n2cncn2)C1 [Compound 181, 4-(4-(((R)-1-(1H-1,2,4-triazole-1-carbonyl)pyrrolidin-3-yl)(methyl)amino)-6-chloro-8-fluoro-2-(((2R,7aS)-2-fluorotetrahydro-1H-pyrrolizin-7a(5H)-yl)methoxy)quinazolin-7-yl)-2-amino-7-fluorobenzo[b]thiophene-3-carbonitrile] | < 500 nM | < 500 nM | < 500 nM | < 500 nM | ≤ 500 nM
8 | CCN(c1nc(OC[C@@]23CCCN2[C@H](COc2ccc(C(F)(F)F)nn2)CC3)nc2c(F)c(-c3ccc(F)c4sc(N)c(C#N)c34)c(Cl)cc12)[C@@H]1CCN(C(=O)n2cc(C)nc2C)[C@@H]1C [Compound 182, 2-amino-4-(6-chloro-4-(((2R,3R)-1-(2,4-dimethyl-1H-imidazole-1-carbonyl)-2-methylpyrrolidin-3-yl)(ethyl)amino)-8-fluoro-2-(((3S,7aS)-3-(((6-(trifluoromethyl)pyridazin-3-yl)oxy)methyl)tetrahydro-1H-pyrrolizin-7a(5H)-yl)methoxy)quinazolin-7-yl)-7-fluorobenzo[b]thiophene-3-carbonitrile] | < 500 nM | < 500 nM | < 500 nM | < 500 nM | ≤ 500 nM

Further lines, results first:

Row | IC50 (KRAS G12D) | IC50 (KRAS WT) | IC50 (KRAS G12V) | IC50 (KRAS G12S) | IC50 (MiaPaca2 cells) | SMILES
9 | < 500 nM | < 500 nM | < 500 nM | < 500 nM | ≤ 500 nM | CCN(c1nc(OC[C@@]23CCCN2C[C@H](F)C3)nc2c(F)c(-c3ccc(F)c4sc(N)c(C#N)c34)c(Cl)cc12)[C@@H]1CCN(C(=O)n2cnc(OC)c2)[C@@H]1C [Compound 170, 2-amino-4-(6-chloro-4-(ethyl((2R,3R)-1-(4-methoxy-1H-imidazole-1-carbonyl)-2-methylpyrrolidin-3-yl)amino)-8-fluoro-2-(((2R,7aS)-2-fluorotetrahydro-1H-pyrrolizin-7a(5H)-yl)methoxy)quinazolin-7-yl)-7-fluorobenzo[b]thiophene-3-carbonitrile]
10 | < 500 nM | < 500 nM | < 500 nM | < 500 nM | ≤ 500 nM | CCN(c1nc(OC[C@@]23CCCN2C[C@H](F)C3)nc2c(F)c(-c3ccc(F)c4sc(N)c(C#N)c34)c(C3CC3)cc12)[C@@H]1CCN(C(=O)n2ccnc2C)[C@@H]1C [Compound 171, 2-amino-4-(6-cyclopropyl-4-(ethyl((2R,3R)-2-methyl-1-(2-methyl-1H-imidazole-1-carbonyl)pyrrolidin-3-yl)amino)-8-fluoro-2-(((2R,7aS)-2-fluorotetrahydro-1H-pyrrolizin-7a(5H)-yl)methoxy)quinazolin-7-yl)-7-fluorobenzo[b]thiophene-3-carbonitrile]
11 | < 500 nM | < 500 nM | < 500 nM | < 500 nM | ≤ 500 nM | C[C@@H]1[C@H](N(C)c2nc(OC[C@@]34CCCN3C[C@H](F)C4)nc3c(F)c(-c4ccc(F)c5sc(N)c(C#N)c45)c(Cl)cc23)CCN1C(=O)n1cccn1 [Compound 172, 2-amino-4-(6-chloro-8-fluoro-2-(((2R,7aS)-2-fluorotetrahydro-1H-pyrrolizin-7a(5H)-yl)methoxy)-4-(methyl((2R,3R)-2-methyl-1-(1H-pyrazole-1-carbonyl)pyrrolidin-3-yl)amino)quinazolin-7-yl)-7-fluorobenzo[b]thiophene-3-carbonitrile]
12 | < 500 nM | < 500 nM | < 500 nM | < 500 nM | ≤ 500 nM | CC[C@@H]1[C@H](N(CC)c2nc(OC[C@@]34CCCN3C[C@H](F)C4)nc3c(F)c(-c4ccc(F)c5sc(N)c(C#N)c45)c(Cl)cc23)CCN1C(=O)n1ccnc1 [Compound 173, 2-amino-4-(6-chloro-4-(ethyl((2R,3R)-2-ethyl-1-(1H-imidazole-1-carbonyl)pyrrolidin-3-yl)amino)-8-fluoro-2-(((2R,7aS)-2-fluorotetrahydro-1H-pyrrolizin-7a(5H)-yl)methoxy)quinazolin-7-yl)-7-fluorobenzo[b]thiophene-3-carbonitrile]
13 | < 500 nM | < 500 nM | < 500 nM | < 500 nM | ≤ 500 nM | Cc1ncn(C(=O)N2C[C@]3(CCCCN(c4nc(OC[C@@]56CCCN5C[C@H](F)C6)nc5c(F)c(-c6ccc(F)c7sc(N)c(C#N)c67)c(Cl)cc45)C3)[C@H]2C2(C)CC2)c1C [Compound 174, 2-amino-4-(6-chloro-4-((1R,4R)-2-(4,5-dimethyl-1H-imidazole-1-carbonyl)-1-(1-methylcyclopropyl)-2,6-diazaspiro[3.6]decan-6-yl)-8-fluoro-2-(((2R,7aS)-2-fluorotetrahydro-1H-pyrrolizin-7a(5H)-yl)methoxy)quinazolin-7-yl)-7-fluorobenzo[b]thiophene-3-carbonitrile]
